Results published in publication PMC4156793 (Vascular Cell, 2014).
Marks after values point to notes of the source that are not given here. Each block holds one compound with its values, some of them ahead of it.

Assays:
Colo205 (Colon) = experiment: Tumor cell proliferation assay (MTT), Colo205; format: cell-based; conditions: Homo sapiens, COLO 205, read-out: IC50 in vitro anti-proliferative activity
Method: (§1) Tumor cells were plated at 1 to 2 × 10^3 cells/well on 96-well plates in 0.1 ml of RPMI 1640 containing 10% FBS. […] The HUVEC proliferation assay were performed by a method described previously. […] Percent inhibition of cell growth was determined by the formula below: Inhibition (%) = Mean value of OD of control wells - OD of treated wells * 100/Mean value of OD of control wells. Each value is expressed as the mean. […] All experiments were done in either duplicate or quadruplicate.

[1] = system: MDA-MB 435 (Melanoma) xenograft; experiment: Subcutaneous xenograft model, MDA-MB 435; format: in vivo, mouse; conditions: MDA-MB 435 xenograft
Method: (§2) Tumor cells were injected subcutaneously into the right flank region of 7-week-old nude mice. […] Tumor diameters were measured with a vernier caliper and body weight was measured twice weekly. The tumor volume (mm^3) was calculated using the formula: length (mm) × width (mm)^2 × 1/2. […] When the tumor volume was reduced, the ΔT/C values were calculated by the following formula: ΔT/C (%) = (TVn - TV1)/TV1 × 100, where TVn is the tumor volume of treated mice at day n. The number of mice is ten for control group in Table 1 and five for each group in other experiments. Mice in control group were treated with vehicle.

[2] = system: A431 (Epidermoid) xenograft; experiment: Subcutaneous xenograft model, A431; format: in vivo, mouse
Method: as §2

FGFR2 = target: T1, FGFR2 (Homo sapiens, UniProt P21802); experiment: In vitro kinase assay FGFR2; format: biochemical
T1 construct: purchased Carna Biosciences, Inc. (Kobe, Japan)
Method: (§3) Tyrosine kinase assays were performed by an ELISA and Off-chip Mobility Shift Assay (MSA) by Carna Biosciences, Inc. (Kobe, Japan).

SEKI model = experiment: Subcutaneous xenograft model, SEKI; format: in vivo, mouse; conditions: 100 mg/kg orally twice daily for 7 days
Method: as §2
Each group consisted of 5 mice. […] The relationship between the antitumor activity and MVD is shown in (B), and that between the antitumor activity and the % of pericyte coverage of vessels is shown in (C). Each symbol (○) indicates the mean of MVD or pericyte coverage in each tumor xenograft model. (D) Vascular score in the lenvatinib-sensitive and –relatively resistant groups. The vascular score was the sum of the MVD and pericyte coverage scores.

[3] = system: DU145 (Prostate) xenograft; experiment: Subcutaneous xenograft model, DU145; format: in vivo, mouse
Method: as §2

KIT = target: T2, KIT (Homo sapiens, UniProt P10721); experiment: In vitro kinase assay KIT; format: biochemical
T2 construct: purchased Carna Biosciences, Inc. (Kobe, Japan)

H460 (Lung) = experiment: Tumor cell proliferation assay (MTT), H460; format: cell-based; conditions: Homo sapiens, NCI-H460; read-out: IC50 in vitro anti-proliferative activity
Method: as §1

[4] = Tolerability in tumor-bearing nude mice; format: in vivo
Method: as §2

HUVECs [5] = experiment: VEGF-induced proliferation of HUVECs; format: cell-based; conditions: Homo sapiens, HUVEC, 72 h; VEGF 20 ng/mL, 3 days, WST-1
Method: (§4) Tumor cells were plated at 1 to 2 × 10^3 cells/well on 96-well plates in 0.1 ml of RPMI 1640 containing 10% FBS. […] The HUVEC proliferation assay were performed by a method described previously. […] After incubation for 3 days, cell viability was determined by measuring the absorbance of WST-1 reagent (DOJINDO, Kumamoto, Japan). Percent inhibition of cell growth was determined by the formula below: Inhibition (%) = Mean value of OD of control wells - OD of treated wells * 100/Mean value of OD of control wells. Each value is expressed as the mean. […] All experiments were done in either duplicate or quadruplicate.

MIApaca-II (Pancreas) = experiment: Tumor cell proliferation assay (MTT), MIApaca-II; format: cell-based; conditions: Homo sapiens, read-out: IC50 in vitro anti-proliferative activity
Method: as §1

HUVECs [6] = experiment: FGF-2 induced proliferation of HUVECs; format: cell-based; conditions: Homo sapiens, HUVEC, 72 h; FGF2 20 ng/mL, 3 days, WST-1
Method: as §4

H460 (Lung) xenograft = experiment: Subcutaneous xenograft model, H460; format: in vivo, mouse
Method: as §2

VEGFR1 (FLT1) = target: T3, VEGFR1 (FLT1) (Homo sapiens, UniProt P17948); experiment: In vitro kinase assay VEGFR1 (FLT1); format: biochemical
T3 construct: purchased Carna Biosciences, Inc. (Kobe, Japan)
Method: as §3

FGFR1 = target: T4, FGFR1 (Homo sapiens, UniProt P11362); experiment: In vitro kinase assay FGFR1; format: biochemical
T4 construct: purchased Carna Biosciences, Inc. (Kobe, Japan)
Method: as §3

SK-OV-3 (Ovary) = experiment: Tumor cell proliferation assay (MTT), SK-OV-3; format: cell-based; conditions: Homo sapiens, read-out: IC50 in vitro anti-proliferative activity
Method: as §1

HUVECs [7] = experiment: VEGF-induced sandwich tube formation (sTF) of HUVECs; format: cell-based; conditions: Homo sapiens, HUVEC, 96 h; sTF assay, EGF 10 ng/mL with VEGF 20 ng/mL, 4 days
Method: (§5) In vitro sandwich tube formation (sTF) assay, HUVECs in SFM containing EGF (10 ng/mL) with VEGF (20 ng/mL) or FGF2 (20 ng/ml) were plated onto the 1st layer of collagen gel (Nitta Gelatin, Tokyo, Japan) at 1.0 × 10^5 cells in 24-well plates and a 2nd layer of collagen gel was added onto the HUVECs. […] After 4 days, MTT solution was added and photomicrographs of tube formation were taken with a light microscope. The tube length of capillaries was measured using image analysis (Angiogenesis Image Analyzer, ver. 1.04; Kurabo, Osaka, Japan).

MDA-MB 435 (Melanoma) = experiment: Tumor cell proliferation assay (MTT), MDA-MB 435; format: cell-based; conditions: Homo sapiens, read-out: IC50 in vitro anti-proliferative activity
Method: as §1

[8] = system: Colo205 (Colon) xenograft; experiment: Subcutaneous xenograft model, Colo205; format: in vivo, mouse
Method: as §2

KP-1/VEGF transfectants = experiment: In vitro growth of KP-1/VEGF transfectants; format: cell-based; conditions: Homo sapiens
Method: as §4

[9] = system: SK-OV-3 (Ovary) xenograft; experiment: Subcutaneous xenograft model, SK-OV-3; format: in vivo, mouse; conditions: SK-OV-3 xenograft
Method: as §2

FGFR3 = target: T5, FGFR3 (Homo sapiens, UniProt P22607); experiment: In vitro kinase assay FGFR3; format: biochemical
T5 construct: purchased Carna Biosciences, Inc. (Kobe, Japan)
Method: as §3

HUVECs [10] = experiment: FGF-2 induced sandwich tube formation (sTF) of HUVECs; format: cell-based; conditions: Homo sapiens, HUVEC, 96 h; sTF assay, EGF 10 ng/mL with FGF2 20 ng/ml, 4 days
Method: as §5

VEGFR3 (FLT4) = target: T6, VEGFR3 (FLT4) (Homo sapiens, UniProt P35916); experiment: In vitro kinase assay VEGFR3 (FLT4); format: biochemical
T6 construct: purchased Carna Biosciences, Inc. (Kobe, Japan)
Method: as §3

A431 (Epidermoid) = experiment: Tumor cell proliferation assay (MTT), A431; format: cell-based; conditions: Homo sapiens, A-431, read-out: IC50 in vitro anti-proliferative activity
Method: as §1

DU145 (Prostate) = experiment: Tumor cell proliferation assay (MTT), DU145; format: cell-based; conditions: Homo sapiens, DU-145, read-out: IC50 in vitro anti-proliferative activity
Method: as §1

[11] = system: MIApaca-II (Pancreas) xenograft; experiment: Subcutaneous xenograft model, MIApaca-II; format: in vivo, mouse
Method: as §2

[12] = system: FGF-driven in vivo angiogenesis (KP-1/FGF transfectants); experiment: Mouse dorsal air sac (DAS) assay, KP-1/FGF; conditions: 100 mg/kg, orally once daily for 4 days
Method: (§6) An in vivo angiogenesis assay in mice was performed as described previously with minor changes. Millipore chambers (Millipore, Bedford, MA) were packed with 1.0 × 10^7 KP-1 mock, KP-1/VEGF or KP-1/FGF transfectants and transplanted into the dorsal air sac of C57BL/6 mice (n = 3–5 each, with experiments performed in triplicate). For a pseudo-operation, collagen I gel was injected into the Millipore chambers. Photographs were taken 4 days after implantation.
(§7) (A) In vivo angiogenesis in mouse DAS assay. Angiogenesis was induced by overexpressed human VEGF121 (KP-1/VEGF) or mouse FGF4 (KP-1/FGF) in human pancreatic cancer KP-1 cells at the mouse dorsal skin. Representative photographs are shown. […] Compounds were administered orally once daily for 4 days at the indicated doses. Data are the mean ± std. *: p < 0.05 and **: p < 0.01 compared to vehicle.

[13] = system: VEGF-driven in vivo angiogenesis (KP-1/VEGF transfectants); experiment: Mouse dorsal air sac (DAS) assay, KP-1/VEGF; conditions: 100 and 300 mg/kg, orally once daily for 4 days
Method: as §6, §7

[14] = system: FGFR-driven proliferation; conditions: read-out: IC50, FGFR-driven proliferation in cell assays; cited from earlier work
[15] = 1 mg/kg orally twice daily for 28 days
[16] = 3 mg/kg orally twice daily for 28 days
[17] = 10 mg/kg orally twice daily for 28 days
[18] = 30 mg/kg orally twice daily for 28 days
[19] = 100 mg/kg orally twice daily for 28 days
[20] = 1 mg/kg orally twice daily for 14 days
[21] = 3 mg/kg orally twice daily for 14 days
[22] = 10 mg/kg orally twice daily for 14 days
[23] = 30 mg/kg orally twice daily for 14 days
[24] = 100 mg/kg orally twice daily for 14 days

T1 sequence (P21802 22-821): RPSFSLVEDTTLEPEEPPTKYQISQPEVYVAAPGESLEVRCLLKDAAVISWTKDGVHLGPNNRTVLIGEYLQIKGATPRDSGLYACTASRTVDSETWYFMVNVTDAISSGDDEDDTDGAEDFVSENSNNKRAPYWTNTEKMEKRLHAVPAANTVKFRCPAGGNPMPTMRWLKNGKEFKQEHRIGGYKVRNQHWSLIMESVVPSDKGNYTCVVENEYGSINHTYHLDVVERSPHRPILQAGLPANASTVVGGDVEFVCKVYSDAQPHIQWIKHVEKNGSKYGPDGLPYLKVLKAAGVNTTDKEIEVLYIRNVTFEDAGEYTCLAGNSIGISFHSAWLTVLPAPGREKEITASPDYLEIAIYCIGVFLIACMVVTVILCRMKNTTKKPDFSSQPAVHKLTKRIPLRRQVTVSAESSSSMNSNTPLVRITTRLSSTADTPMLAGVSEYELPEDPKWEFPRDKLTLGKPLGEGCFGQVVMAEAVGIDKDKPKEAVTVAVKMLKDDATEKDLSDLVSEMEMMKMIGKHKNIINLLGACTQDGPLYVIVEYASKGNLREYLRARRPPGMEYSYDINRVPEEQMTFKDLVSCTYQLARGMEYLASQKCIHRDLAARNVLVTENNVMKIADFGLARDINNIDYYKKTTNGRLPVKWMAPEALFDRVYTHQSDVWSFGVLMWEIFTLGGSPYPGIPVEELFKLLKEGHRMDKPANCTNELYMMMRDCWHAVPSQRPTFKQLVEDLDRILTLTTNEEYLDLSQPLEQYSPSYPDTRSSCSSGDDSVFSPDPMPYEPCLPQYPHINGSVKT
T6 sequence (P35916 25-1363): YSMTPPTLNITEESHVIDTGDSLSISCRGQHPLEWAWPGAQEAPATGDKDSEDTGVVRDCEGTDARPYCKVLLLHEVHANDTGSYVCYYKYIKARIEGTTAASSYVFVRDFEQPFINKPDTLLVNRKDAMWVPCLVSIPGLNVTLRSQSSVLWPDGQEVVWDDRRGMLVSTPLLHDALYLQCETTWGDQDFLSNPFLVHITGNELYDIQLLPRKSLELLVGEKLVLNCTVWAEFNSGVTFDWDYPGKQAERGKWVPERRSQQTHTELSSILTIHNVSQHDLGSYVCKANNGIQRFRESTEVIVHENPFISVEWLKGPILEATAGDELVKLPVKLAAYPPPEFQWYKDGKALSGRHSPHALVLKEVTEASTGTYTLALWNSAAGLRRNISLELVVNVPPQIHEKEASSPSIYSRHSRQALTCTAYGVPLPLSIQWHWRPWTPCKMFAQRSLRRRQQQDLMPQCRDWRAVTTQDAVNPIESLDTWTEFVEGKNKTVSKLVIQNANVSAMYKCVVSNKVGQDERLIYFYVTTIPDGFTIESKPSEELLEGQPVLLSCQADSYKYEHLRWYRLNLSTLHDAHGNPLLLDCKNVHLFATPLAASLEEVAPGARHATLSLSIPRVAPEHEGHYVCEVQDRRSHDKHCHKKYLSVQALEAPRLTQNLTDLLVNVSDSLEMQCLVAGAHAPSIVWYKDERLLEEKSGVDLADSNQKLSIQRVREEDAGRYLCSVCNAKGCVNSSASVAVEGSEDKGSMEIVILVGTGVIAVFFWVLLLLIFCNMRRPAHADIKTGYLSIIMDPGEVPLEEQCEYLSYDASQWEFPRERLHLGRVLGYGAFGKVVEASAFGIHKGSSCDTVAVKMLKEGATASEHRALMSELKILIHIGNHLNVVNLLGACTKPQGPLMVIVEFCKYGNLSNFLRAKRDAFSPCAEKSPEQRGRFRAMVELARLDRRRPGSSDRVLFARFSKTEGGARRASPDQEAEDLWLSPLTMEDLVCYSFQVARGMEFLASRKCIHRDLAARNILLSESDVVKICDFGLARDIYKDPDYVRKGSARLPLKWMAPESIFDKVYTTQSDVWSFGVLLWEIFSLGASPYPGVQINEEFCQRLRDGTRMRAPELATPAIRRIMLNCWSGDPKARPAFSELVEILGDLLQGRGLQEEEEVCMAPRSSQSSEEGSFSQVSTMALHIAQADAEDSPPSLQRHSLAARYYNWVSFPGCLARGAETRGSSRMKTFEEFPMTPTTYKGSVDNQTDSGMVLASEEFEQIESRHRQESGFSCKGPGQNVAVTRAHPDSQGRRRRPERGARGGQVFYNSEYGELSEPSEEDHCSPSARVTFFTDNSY
T3 sequence (P17948 27-1338): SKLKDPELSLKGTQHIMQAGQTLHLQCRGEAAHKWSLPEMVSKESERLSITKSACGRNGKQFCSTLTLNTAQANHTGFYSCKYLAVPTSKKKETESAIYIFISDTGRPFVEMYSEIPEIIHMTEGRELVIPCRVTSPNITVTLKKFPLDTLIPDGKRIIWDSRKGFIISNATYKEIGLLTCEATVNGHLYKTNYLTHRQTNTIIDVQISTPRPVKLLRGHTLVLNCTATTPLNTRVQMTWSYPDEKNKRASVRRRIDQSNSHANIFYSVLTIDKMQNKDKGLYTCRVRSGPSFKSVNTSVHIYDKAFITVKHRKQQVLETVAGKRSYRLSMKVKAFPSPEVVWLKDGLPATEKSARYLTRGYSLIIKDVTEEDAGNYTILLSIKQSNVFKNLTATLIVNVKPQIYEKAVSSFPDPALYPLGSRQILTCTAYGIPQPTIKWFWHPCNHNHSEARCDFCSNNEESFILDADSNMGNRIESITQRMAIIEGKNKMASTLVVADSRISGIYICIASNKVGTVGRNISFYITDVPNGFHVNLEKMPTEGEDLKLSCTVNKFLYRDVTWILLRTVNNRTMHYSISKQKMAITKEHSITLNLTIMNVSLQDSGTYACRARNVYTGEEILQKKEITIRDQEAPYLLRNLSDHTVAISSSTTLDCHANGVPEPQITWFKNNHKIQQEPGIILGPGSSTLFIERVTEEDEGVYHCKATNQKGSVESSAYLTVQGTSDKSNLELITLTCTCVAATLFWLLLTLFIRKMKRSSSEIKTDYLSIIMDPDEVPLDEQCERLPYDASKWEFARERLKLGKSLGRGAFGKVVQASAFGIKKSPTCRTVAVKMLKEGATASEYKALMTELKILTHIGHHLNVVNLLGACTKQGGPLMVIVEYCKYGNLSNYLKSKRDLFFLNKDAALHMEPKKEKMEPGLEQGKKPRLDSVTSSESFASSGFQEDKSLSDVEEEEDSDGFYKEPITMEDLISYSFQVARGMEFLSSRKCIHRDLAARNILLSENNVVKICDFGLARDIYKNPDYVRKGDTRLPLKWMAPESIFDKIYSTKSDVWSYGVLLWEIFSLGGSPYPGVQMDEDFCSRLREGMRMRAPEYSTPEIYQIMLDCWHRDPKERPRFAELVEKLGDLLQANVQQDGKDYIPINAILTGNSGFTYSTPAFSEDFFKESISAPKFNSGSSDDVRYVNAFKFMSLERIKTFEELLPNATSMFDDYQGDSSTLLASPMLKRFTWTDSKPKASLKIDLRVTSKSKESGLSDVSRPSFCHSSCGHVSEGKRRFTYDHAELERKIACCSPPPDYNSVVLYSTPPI
T4 sequence (P11362 22-822): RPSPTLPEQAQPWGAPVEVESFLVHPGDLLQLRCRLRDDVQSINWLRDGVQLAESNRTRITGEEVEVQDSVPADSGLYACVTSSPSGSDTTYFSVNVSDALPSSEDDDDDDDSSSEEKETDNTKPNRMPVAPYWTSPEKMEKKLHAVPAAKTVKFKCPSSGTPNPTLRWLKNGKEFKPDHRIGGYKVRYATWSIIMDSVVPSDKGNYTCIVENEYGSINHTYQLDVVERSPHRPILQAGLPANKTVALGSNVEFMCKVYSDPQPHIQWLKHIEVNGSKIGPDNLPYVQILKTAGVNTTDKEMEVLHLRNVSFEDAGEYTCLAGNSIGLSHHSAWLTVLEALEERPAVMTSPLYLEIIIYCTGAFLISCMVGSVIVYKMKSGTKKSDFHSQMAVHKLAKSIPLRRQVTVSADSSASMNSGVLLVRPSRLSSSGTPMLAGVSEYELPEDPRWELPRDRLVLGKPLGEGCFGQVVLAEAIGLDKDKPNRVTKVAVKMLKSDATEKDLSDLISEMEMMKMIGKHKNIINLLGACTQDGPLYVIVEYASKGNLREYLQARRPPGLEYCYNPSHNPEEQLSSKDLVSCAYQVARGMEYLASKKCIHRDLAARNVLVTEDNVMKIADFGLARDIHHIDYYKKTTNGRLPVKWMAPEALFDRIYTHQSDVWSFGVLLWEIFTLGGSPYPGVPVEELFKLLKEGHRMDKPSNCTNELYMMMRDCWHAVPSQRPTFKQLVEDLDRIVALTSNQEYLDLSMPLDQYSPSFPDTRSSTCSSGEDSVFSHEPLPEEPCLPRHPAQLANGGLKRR
T5 sequence (P22607 23-806): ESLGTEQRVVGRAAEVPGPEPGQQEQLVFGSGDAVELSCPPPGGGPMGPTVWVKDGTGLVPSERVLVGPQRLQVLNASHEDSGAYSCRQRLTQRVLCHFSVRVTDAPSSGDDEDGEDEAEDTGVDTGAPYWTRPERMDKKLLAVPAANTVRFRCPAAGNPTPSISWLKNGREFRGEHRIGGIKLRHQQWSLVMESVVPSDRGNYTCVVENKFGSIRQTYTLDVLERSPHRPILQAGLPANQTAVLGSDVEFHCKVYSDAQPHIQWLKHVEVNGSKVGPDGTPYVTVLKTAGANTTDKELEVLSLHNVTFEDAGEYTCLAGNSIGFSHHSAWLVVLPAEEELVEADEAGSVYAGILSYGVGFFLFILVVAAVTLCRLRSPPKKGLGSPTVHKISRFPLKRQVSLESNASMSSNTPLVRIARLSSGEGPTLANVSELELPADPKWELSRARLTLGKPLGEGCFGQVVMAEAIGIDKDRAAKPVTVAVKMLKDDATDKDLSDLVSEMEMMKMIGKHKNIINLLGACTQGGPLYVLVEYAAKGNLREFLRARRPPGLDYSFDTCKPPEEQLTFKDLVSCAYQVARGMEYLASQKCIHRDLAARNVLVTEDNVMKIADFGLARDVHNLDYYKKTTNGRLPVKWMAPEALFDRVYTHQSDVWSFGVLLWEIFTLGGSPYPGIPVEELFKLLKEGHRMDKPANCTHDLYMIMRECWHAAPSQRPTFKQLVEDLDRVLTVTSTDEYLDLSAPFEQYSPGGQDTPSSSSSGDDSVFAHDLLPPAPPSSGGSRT

SMILES: COc1cc2nccc(Oc3ccc(NC(=O)NC4CC4)c(Cl)c3)c2cc1C(N)=O [lenvatinib, 4-[3-Chloro-4-(N’-cyclopropylureido)phenoxy]-7-methoxyquinoline-6-carboxamide]
IC50 (Colo205 (Colon)): 27500 nM
ΔTV (%) lenvatinib (mg/kg) 1 [1, 15]: 55.7* %
ΔTV (%) lenvatinib (mg/kg) 3 [1, 16]: 56.9* %
ΔTV (%) lenvatinib (mg/kg) 10 [1, 17]: 40.2* %
ΔTV (%) lenvatinib (mg/kg) 30 [1, 18]: 21.2* %
ΔTV (%) lenvatinib (mg/kg) 100 [1, 19]: 25.7* %
ΔTV (%) lenvatinib (mg/kg) 1 [2, 20]: 41.7%
ΔTV (%) lenvatinib (mg/kg) 3 [2, 21]: 29.4* %
ΔTV (%) lenvatinib (mg/kg) 10 [2, 22]: 0.0* %
ΔTV (%) lenvatinib (mg/kg) 30 [2, 23]: -7.5* %
ΔTV (%) lenvatinib (mg/kg) 100 [2, 24]: -32.9* %
Ki (FGFR2): 8.2 nM
Antitumor activity, SEKI model (SEKI model): no effect
ΔTV (%) lenvatinib (mg/kg) 1 [3, 15]: -7.5* %
ΔTV (%) lenvatinib (mg/kg) 3 [3, 16]: -42.2* %
ΔTV (%) lenvatinib (mg/kg) 10 [3, 17]: -65.4* %
ΔTV (%) lenvatinib (mg/kg) 30 [3, 18]: -72.0* %
ΔTV (%) lenvatinib (mg/kg) 100 [3, 19]: -78.6* %
Ki (KIT): 11 nM
IC50 (H460 (Lung)): 26300 nM
Losses of body weights ([4]; 100 mg/kg twice daily for 4 weeks, observed in 3 out of 7 models): < 10%
MTD at 4 weeks ([4]; mouse, in vivo, oral, tumor xenograft models, read-out: Maximum tolerated dose (MTD)): 100 mg/kg
IC50 (HUVECs [5]): 3.4 nM
IC50 (MIApaca-II (Pancreas)): 33800 nM
IC50 (HUVECs [6]): 410 nM
ΔTV (%) lenvatinib (mg/kg) 1 (H460 (Lung) xenograft; [20]): 65.4%
ΔTV (%) lenvatinib (mg/kg) 3 (H460 (Lung) xenograft; [21]): 34.9* %
ΔTV (%) lenvatinib (mg/kg) 10 (H460 (Lung) xenograft; [22]): 16.3* %
ΔTV (%) lenvatinib (mg/kg) 30 (H460 (Lung) xenograft; [23]): 16.4* %
ΔTV (%) lenvatinib (mg/kg) 100 (H460 (Lung) xenograft; [24]): -0.8* %
Ki (VEGFR1 (FLT1)): 1.3 nM
Ki (FGFR1): 22 nM
IC50 (SK-OV-3 (Ovary)): 26400 nM
IC50 (HUVECs [7]): 2.7 nM
IC50 (MDA-MB 435 (Melanoma)): 24200 nM
ΔTV (%) lenvatinib (mg/kg) 1 [8, 20]: 43.8* %
ΔTV (%) lenvatinib (mg/kg) 3 [8, 21]: 23.1* %
ΔTV (%) lenvatinib (mg/kg) 10 [8, 22]: 12.8* %
ΔTV (%) lenvatinib (mg/kg) 30 [8, 23]: -4.5* %
ΔTV (%) lenvatinib (mg/kg) 100 [8, 24]: -21.3* %
IC50 (KP-1/VEGF transfectants): 19600 nM
ΔTV (%) lenvatinib (mg/kg) 1 [9, 20]: 52.3* %
ΔTV (%) lenvatinib (mg/kg) 3 [9, 21]: 39.6* %
ΔTV (%) lenvatinib (mg/kg) 10 [9, 22]: 12.2* %
ΔTV (%) lenvatinib (mg/kg) 30 [9, 23]: 8.3* %
ΔTV (%) lenvatinib (mg/kg) 100 [9, 24]: -15.6* %
Ki (FGFR3): 15 nM
IC50 (HUVECs [10]): 590 nM
Ki (VEGFR3 (FLT4)): 0.71 nM
IC50 (A431 (Epidermoid)): 30800 nM
IC50 (DU145 (Prostate)): 30800 nM
ΔTV (%) lenvatinib (mg/kg) 1 [11, 20]: 56.1* %
ΔTV (%) lenvatinib (mg/kg) 3 [11, 21]: 49.9* %
ΔTV (%) lenvatinib (mg/kg) 10 [11, 22]: 30.1* %
ΔTV (%) lenvatinib (mg/kg) 30 [11, 23]: 15.3* %
ΔTV (%) lenvatinib (mg/kg) 100 [11, 24]: 12.5* %

Inhibition of FGF-driven in vivo angiogenesis, KP-1/FGF DAS assay [12]: did not inhibit
Antiangiogenic activity, KP-1/VEGF DAS model [13]: selective antiangiogenic activity
SMILES: CNC(=O)c1cc(Oc2ccc(NC(=O)Nc3ccc(Cl)c(C(F)(F)F)c3)cc2)ccn1 [sorafenib, reference compound]
IC50 [14]: 2000 nM
